The record followed here is article PMC12188386, “Selective CBP/EP300 Bromodomain Inhibitors: Novel Epigenetic Tools to Counter TNF-α-Driven Inflammation” (JACS Au, 2025).

For series [1], the target named is BRD4(1) (Homo sapiens, UniProt O60885). Description: BROMOscan bromoKdELECT. It is filed as binding. Particulars: commercial Bromoscan assay. The procedure:
(§1) was used as the calibration curve. To obtain saturated solutions of the compounds of interest, in duplicates 4.4 µL of a 10 or 5 mM stock in DMSO was added to 436 µL Buffer (PBS, pH = 7.4), to give a final concentration of 100 or 50 µM. Samples were incubated on a shaker (500 rpm) at 37°C for 90 minutes and then filtered (Millex-GV 13 mm, 0.22 µm). 304 µL of the filtrate was mixed with 76 µL of acetonitrile on a dilution plate, from which 350 µL was transferred to a UV-plate and UV-absorption was read using a SpectraMax M5 (Molecular devices). The absorbance was blank-corrected and compared to the calibration curve to […]
(§2) solubility. The wavelengths used for the calibration curve are available in Table S4.
Sample preparation in CAPTISOL® […]
lower solubility (2) compounds respectively in a 12.5 w/v% CAPTISOL® solution in water. In a precisely tared vial, required amounts of compounds and CAPTISOL® were weighed out as solids. Based on the known density of 12.5 % CAPTISOL® solution (d = 1.05755 g/mL at 25 °C), the precise weight of the resulting solution and so the required amount of water by weight was calculated. The water was added portion wise with agitation, vortexing and sonication cycles in between additions. The saturated solutions were then filtered (Millex-GV 13 mm, 0.22 µm). In duplicates, aliquots of the filtrates were taken and diluted with blank 12.5 % CAPTISOL® water solution in either a 1:14 (higher sol. compounds) or 1:7 (lower sol. compounds) ratio, 350 µL was transferred to a 96-Well Plate (Greiner, UV-star) then UV absorption (240-400 nm, 10 nm steps) was measured using a SpectraMax M5 (Molecular devices). […] The calculated concentrations are available in Table S4. […]
The bromodomain concentration in the eluates was measured by qPCR.
Test compounds were prepared as 1000X stocks in DMSO and distributed by acoustic transfer (non-contact dispensing). […] KDs were determined using an 11-point 3-fold compound dilution series with one DMSO control point, and were calculated with a standard dose-response curve using the Hill equation: […]

The nature of series [2]: kinetic solubility. It is filed as physicochemical. The conditions noted are these: PBS buffer, aqueous buffer, kinetic from dmso stock, PBS pH 7.4, 37°C, ± st. dev. between technical replicates, read-out: Kin. Sol. The procedure: Starting from an initial concentration of 100, 50 or 20 µM, a 2-fold serial dilution of the compound (10 mM stock in DMSO) was prepared in a mixture of ACN/Buffer (PBS, pH = 7.4) 2:8, with 1% DMSO. 350 µL was transferred to a 96-Well Plate (Greiner, UV-star) then UV absorption (240-400 nm, 10 nm steps) was measured. The absorption was blank-corrected and plotted against concentration. The wavelength (λ) providing the best fitting straight line […]
as §1, §2
Based on the known density of 12.5 % CAPTISOL® solution (d = 1.05755 g/mL at 25 °C), the precise weight of the resulting solution and so the required amount of water by weight was calculated. The water was added portion wise with agitation, vortexing and sonication cycles in between additions. The saturated solutions were then filtered (Millex-GV 13 mm, 0.22 µm). In duplicates, aliquots of the filtrates were taken and diluted with blank 12.5 % CAPTISOL® water solution in either a 1:14 (higher sol. compounds) or 1:7 (lower sol. compounds) ratio, 350 µL was transferred to a 96-Well Plate (Greiner, UV-star) then UV absorption (240-400 nm, 10 nm steps) was measured using a SpectraMax M5 (Molecular devices). The absorption was blank-corrected, compared to the calibration curve obtained during the solubility measurement method above and finally corrected for the dilution ratio to obtain the compound concentration in the saturated 12.5 % CAPTISOL® solution. The calculated concentrations are available in Table S4.
BROMOscan™ assays (provided by Eurofins DiscoverX, US)1,2 […]
coli host derived from the BL21 strain. E. coli were grown to log-phase and infected with T7 phage from a frozen stock (multiplicity of infection = 0.4) and incubated with shaking at 32°C until lysis (90-150 minutes). The lysates were centrifuged (5,000 x g) and filtered (0.2µm) to remove cell debris. Streptavidin-coated magnetic beads were treated with biotinylated small molecule or acetylated peptide ligands for 30 minutes at room temperature to generate affinity resins for bromodomain assays. The liganded beads were blocked with excess biotin and washed with blocking buffer (SeaBlock (Pierce), 1 % BSA, 0.05 % Tween 20, 1 mM DTT) to remove unbound ligand and to reduce non specific phage binding. Binding reactions were assembled by combining bromodomains, liganded affinity beads, and test compounds (see […]
Sodium azide, 7.4 mM DTT). All reactions were performed in polypropylene 384-well plates in a final volume of 0.02 mL. The assay plates were incubated at room temperature with […]
20). The beads were then resuspended in elution buffer (1x PBS, 0.05% Tween 20, 2 µM non-

In series [3] the test system is myc expression in LP1 cells. Description: myc mRNA expression by RT-qPCR. It is filed as cell-based. Particulars: 4 h treatment of LP1 cells with 1 μM compound. The protocol: For myc expression, 1x10^6 LP1 cells were plated the day prior to a 4 h treatment with compounds at a final DMSO concentration of 0.1 %. […]
In all cases, total
RNA was extracted using the NucleoSpin® RNA kit (Machery -Nagel) and used for cDNA synthesis with the High -Capacity cDNA Reverse Transcription kit (Applied Biosystems). RT-qPCR reactions were performed using PowerSYBR™ green PCR Master Mix (Applied Biosystems) and a LightCycler® 480 (Roche). cDNA was denatured for 10 min at 95 °C followed by 40 cycles of 15 s at 95 °C and 1 min at 60 °C. Cp values were determined as the maximum of the second derivative and target gene expression was compared to that of hprt from the same sample using the 2-ΔCp method. Gene expression was then normalized to the average of the control samples from the same day, or all biological replicates. […]
For orientation: In qPCR the cycle at which signal appears reflects the starting amount.

In brackets after ≈: the same amount, converted by molar mass.

For the compound `CC(=O)Nc1cc(NC(=O)c2ccco2)cc(C(=O)Nc2cccc3nnc(C)cc23)c1` [Compound 1], binding in series [1] was put at a Kd of 5.8 µM. Moreover, the solubility kinetic at 90 min in series [2] was found to be 22.2 ± 1.3 µM (≈ 9.53 µg/mL). The “myc mRNA expression” value in series [3] is listed as “not observed”.
The like results for `Cc1cc2c(NC(=O)c3cc(NC(=O)c4ccco4)cc(-c4ccn(C)n4)c3)cccc2nn1` [Compound 2] were, in that order, 3.7 µM, 3.2 ± 1.3 µM (≈ 1.45 µg/mL) and “significantly decrease myc expression levels”.
As for `Cc1cc2c(NC(=O)c3cc(NC(=O)[C@H]4CCCO4)cc(-c4ccn(C)n4)c3)cccc2nn1` [Compound 5], the Kd (usually the free concentration of one partner at which half of the binding sites on the other are occupied at equilibrium, for simple one-to-one binding) in series [1] worked out at 5.1 µM. Further, the solubility kinetic at 90 min in series [2] was determined as 69.7 ± 0.6 µM (≈ 31.8 µg/mL). Also, the “myc mRNA expression” value in series [3] is “significantly decreased the expression level of myc”.
